According to patent US10800753B2, “Tetrahydrothiophene-based GABA aminotransferase inactivators and analogs thereof for treating neurological disorders” (Northwestern University, priority 2015, dated 2020):
Values belong to the compound of their own block, whether it stands above or below them.

Assays:
GABA-AT = conditions: cited from earlier work
[1] = tested on: aspartate aminotransferase; conditions: off-target enzyme, prior art; cited from earlier work
[2] = tested on: multiple-hit rat model of infantile spasms; conditions: cited from earlier work
hERG channel = hERG channel (Homo sapiens (Human), UniProt Q12809); assay: Inhibition of the hERG channel, automated whole-cell patch clamp; assay type: cell-based; conditions: hERG CHO-K1 cell line; 0.1 μM, 1 μM, 10 μM; 5 min at room temperature
Description: Inhibition of the hERG Channel. The experiments were performed by Eurofins Panlabs (Redmond, Wash. 98052, USA). hERG CHO-K1 cell line was used. The test concentrations were 0.1 μM, 1 μM, and 10 μM. The incubation time was 5 min at room temperature, cumulatively. The detection method used an automated whole-cell patch clamp. The experiments were duplicated, and the % inhibition of the tail current was averaged (FIG. 9).

CYP1A = assay: Inhibition of microsomal cytochromes P450: CYP1A; assay type: in vitro ADME, human; conditions: HLM, phenacetin substrate, 10 μM, 10 min at 37° C.
Description: (§1) Inhibition of Microsomal Cytochromes P450. The experiments were performed by Eurofins Panlabs (Redmond, Wash. 98052, USA). CYP1A inhibition (HLM, phenacetin substrate), CYP2B6 inhibition (HLM, bupropion substrate), CYP2C8 inhibition (HLM, paclitaxel substrate), CYP2C9 inhibition (HLM, diclofenac substrate), CYP2C19 inhibition (HLM, omeprazole substrate), CYP2D6 inhibition (HLM, dextromethorphan substrate), and CYP3A inhibition (HLM, midazolam and testosterone substrates) were tested. The test concentration was 10 μM. The incubation time was 10 min at 37° C. The detection method was by HPLC-MS/MS. The experiments were duplicated, and the % inhibition of the control values was averaged (FIG. 10).

CYP2B6 = CYP2B6 (Homo sapiens (Human), UniProt P20813); assay: Inhibition of microsomal cytochromes P450: CYP2B6; assay type: in vitro ADME; conditions: HLM, bupropion substrate, 10 μM, 10 min at 37° C.
Description: as §1

CYP2C8 = CYP2C8 (Homo sapiens (Human), UniProt P10632); assay: Inhibition of microsomal cytochromes P450: CYP2C8; assay type: in vitro ADME; conditions: HLM, paclitaxel substrate, 10 μM, 10 min at 37° C.
Description: as §1

CYP2C9 = CYP2C9 (Homo sapiens (Human), UniProt P11712); assay: Inhibition of microsomal cytochromes P450: CYP2C9; assay type: in vitro ADME; conditions: HLM, diclofenac substrate, 10 μM, 10 min at 37° C.
Description: as §1

CYP2C19 = CYP2C19 (Homo sapiens (Human), UniProt P33261); assay: Inhibition of microsomal cytochromes P450: CYP2C19; assay type: in vitro ADME; conditions: HLM, omeprazole substrate, 10 μM, 10 min at 37° C.
Description: as §1

CYP2D6 = CYP2D6 (Homo sapiens (Human), UniProt P10635); assay: Inhibition of microsomal cytochromes P450: CYP2D6; assay type: in vitro ADME; conditions: HLM, dextromethorphan substrate, 10 μM, 10 min at 37° C.
Description: as §1

CYP3A = assay: Inhibition of microsomal cytochromes P450: CYP3A; assay type: in vitro ADME, human; conditions: HLM, midazolam and testosterone substrates, 10 μM, 10 min at 37° C.
Description: as §1

[3] = Metabolic stability in human liver microsomes; assay type: in vitro ADME; conditions: over 60 minutes, 0.1 μM, 37° C., LC-MS/MS
Description: Measurement of the metabolic stability in HLM was accomplished by incubating 17 with the microsomes and monitoring its disappearance with time using LC-MS/MS. Imipramine, propranolol, terfenadine, and verapamil were run in similar condition as controls. […] Metabolic Stability in Human Liver Microsomes. The experiments were performed by Eurofins Panlabs (Redmond, Wash. 98052, USA). The test concentration of 17 was 0.1 μM. […] The detection method was by LC-MS/MS. Imipramine, propranolol, terfenadine, and verapamil were run in similar condition as controls.

[4] = target: GABA aminotransferase (GABA-AT) (Sus scrofa (Pig), UniProt P80147); assay: Inhibition of GABA-AT, coupled assay with SSDH (IC50 to Ki by Cheng-Prusoff); assay type: biochemical; conditions: competitive inhibitor of GABA-AT
Description: GABA-AT was isolated and purified from pig brain by a published procedure.
Inhibition constants were determined by monitoring GABA-AT activity in the presence of 0-50 mM concentrations of synthesized analogues using a coupled assay with the enzyme succinic semialdehyde dehydrogenase (SSDH). The assay solution consisted of 10 mM GABA, 5 mM α ketoglutarate, 1 mM NADP^+, 5 mM β-mercaptoethanol, and excess SSDH in 50 mM potassium pyrophosphate buffer, pH 8.5. Enzyme activity was determined by observing the change in absorbance at 340 nm at 25° C. IC50 values were obtained using non-linear regression in GraphPad Prism5 software. […] (Yung-Chi, C.; Prusoff, W. H. Biochem. Pharmacol. 1973, 22, 3099-3108.)

Chain of hERG channel (Q12809 whole entry): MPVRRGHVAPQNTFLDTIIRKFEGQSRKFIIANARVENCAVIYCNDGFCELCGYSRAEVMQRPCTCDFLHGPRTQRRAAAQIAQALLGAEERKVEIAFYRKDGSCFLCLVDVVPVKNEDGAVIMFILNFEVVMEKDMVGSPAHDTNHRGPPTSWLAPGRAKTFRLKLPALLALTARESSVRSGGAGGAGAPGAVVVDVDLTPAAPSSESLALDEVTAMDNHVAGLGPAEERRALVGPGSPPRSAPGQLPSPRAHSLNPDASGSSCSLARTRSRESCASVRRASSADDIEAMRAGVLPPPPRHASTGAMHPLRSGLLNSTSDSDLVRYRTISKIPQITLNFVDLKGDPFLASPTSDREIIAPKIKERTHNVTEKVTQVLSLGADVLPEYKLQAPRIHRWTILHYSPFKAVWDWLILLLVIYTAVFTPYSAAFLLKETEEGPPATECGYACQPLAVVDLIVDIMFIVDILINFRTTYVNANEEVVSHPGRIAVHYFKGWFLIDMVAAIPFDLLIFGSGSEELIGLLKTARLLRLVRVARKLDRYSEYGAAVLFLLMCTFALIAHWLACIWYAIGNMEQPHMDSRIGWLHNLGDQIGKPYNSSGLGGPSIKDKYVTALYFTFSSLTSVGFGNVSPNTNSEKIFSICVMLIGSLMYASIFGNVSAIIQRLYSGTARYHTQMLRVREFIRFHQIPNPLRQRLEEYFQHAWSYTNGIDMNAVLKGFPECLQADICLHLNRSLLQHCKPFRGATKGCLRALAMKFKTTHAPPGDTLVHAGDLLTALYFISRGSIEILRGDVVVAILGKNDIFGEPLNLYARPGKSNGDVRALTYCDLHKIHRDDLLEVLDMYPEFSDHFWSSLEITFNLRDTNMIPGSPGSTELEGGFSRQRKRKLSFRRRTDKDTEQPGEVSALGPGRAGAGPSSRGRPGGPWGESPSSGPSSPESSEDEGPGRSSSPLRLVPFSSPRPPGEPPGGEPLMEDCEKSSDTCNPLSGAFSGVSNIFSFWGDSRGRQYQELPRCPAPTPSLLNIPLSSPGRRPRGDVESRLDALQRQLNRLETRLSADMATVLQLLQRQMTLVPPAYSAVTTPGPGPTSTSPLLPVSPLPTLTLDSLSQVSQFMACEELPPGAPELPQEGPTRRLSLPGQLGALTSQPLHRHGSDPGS
Chain of CYP2B6 (P20813 whole entry): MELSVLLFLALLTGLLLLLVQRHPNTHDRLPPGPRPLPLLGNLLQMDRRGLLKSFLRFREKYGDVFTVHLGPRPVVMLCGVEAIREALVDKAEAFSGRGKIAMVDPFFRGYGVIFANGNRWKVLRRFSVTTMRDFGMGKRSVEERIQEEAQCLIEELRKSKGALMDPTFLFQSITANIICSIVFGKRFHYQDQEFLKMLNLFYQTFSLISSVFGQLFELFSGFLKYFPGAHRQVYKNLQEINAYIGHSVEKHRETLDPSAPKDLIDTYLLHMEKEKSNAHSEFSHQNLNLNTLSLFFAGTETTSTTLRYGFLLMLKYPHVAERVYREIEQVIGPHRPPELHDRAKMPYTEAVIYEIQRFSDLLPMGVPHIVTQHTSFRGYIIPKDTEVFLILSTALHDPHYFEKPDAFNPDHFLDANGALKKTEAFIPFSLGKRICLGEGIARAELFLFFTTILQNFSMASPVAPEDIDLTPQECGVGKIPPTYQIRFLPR
Chain of CYP2D6 (P10635 whole entry): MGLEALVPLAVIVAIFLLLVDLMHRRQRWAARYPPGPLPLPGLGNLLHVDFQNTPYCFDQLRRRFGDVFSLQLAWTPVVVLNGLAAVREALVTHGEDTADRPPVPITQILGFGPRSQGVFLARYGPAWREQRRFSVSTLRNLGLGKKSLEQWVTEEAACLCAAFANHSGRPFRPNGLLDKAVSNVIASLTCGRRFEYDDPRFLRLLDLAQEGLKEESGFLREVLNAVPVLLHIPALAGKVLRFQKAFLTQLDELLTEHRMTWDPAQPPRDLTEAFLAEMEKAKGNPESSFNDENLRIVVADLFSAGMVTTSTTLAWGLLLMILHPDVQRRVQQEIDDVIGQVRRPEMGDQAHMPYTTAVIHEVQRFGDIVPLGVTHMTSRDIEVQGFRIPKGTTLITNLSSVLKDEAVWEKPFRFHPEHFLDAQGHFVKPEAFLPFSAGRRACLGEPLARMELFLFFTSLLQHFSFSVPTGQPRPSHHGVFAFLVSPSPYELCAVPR
Chain of CYP2C9 (P11712 whole entry): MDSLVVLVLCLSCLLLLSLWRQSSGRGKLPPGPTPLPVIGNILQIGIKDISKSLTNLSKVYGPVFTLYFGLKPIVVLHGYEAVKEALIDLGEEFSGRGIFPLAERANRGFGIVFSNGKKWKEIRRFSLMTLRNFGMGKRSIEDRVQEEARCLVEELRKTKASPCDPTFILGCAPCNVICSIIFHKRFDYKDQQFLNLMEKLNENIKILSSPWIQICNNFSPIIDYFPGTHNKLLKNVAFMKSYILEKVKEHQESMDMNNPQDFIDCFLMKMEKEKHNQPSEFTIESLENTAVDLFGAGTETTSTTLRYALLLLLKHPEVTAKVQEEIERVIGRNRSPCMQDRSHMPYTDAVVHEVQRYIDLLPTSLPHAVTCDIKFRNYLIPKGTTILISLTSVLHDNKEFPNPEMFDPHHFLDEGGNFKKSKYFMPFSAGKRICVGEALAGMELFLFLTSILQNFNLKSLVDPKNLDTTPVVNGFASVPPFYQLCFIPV
Chain of CYP2C8 (P10632 whole entry): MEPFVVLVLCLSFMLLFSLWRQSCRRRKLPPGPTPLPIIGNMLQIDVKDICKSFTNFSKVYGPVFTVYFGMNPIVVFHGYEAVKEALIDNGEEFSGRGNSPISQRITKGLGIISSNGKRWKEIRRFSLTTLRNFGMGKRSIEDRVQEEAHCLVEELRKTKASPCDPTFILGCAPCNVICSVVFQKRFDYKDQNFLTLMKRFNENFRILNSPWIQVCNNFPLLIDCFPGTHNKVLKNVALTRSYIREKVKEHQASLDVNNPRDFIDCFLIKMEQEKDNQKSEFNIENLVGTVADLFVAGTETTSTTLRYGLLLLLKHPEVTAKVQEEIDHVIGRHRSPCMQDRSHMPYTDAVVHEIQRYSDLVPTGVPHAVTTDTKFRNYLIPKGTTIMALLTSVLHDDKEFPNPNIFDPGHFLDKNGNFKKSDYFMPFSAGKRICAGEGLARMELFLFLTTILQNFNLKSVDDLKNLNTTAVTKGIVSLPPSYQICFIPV
Chain of GABA aminotransferase (GABA-AT) (P80147 29-500): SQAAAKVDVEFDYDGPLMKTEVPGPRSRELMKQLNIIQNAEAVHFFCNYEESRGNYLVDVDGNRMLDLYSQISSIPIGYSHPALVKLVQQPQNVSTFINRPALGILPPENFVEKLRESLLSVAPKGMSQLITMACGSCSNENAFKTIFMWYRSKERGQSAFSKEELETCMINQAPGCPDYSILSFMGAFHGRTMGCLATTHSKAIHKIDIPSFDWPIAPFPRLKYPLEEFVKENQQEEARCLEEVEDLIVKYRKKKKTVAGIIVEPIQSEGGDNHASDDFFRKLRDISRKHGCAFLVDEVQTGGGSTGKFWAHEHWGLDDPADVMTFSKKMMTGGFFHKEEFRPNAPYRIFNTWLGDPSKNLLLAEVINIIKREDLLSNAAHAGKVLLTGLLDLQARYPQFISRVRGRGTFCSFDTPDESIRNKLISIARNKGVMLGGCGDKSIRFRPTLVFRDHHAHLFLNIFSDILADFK
Chain of CYP2C19 (P33261 whole entry): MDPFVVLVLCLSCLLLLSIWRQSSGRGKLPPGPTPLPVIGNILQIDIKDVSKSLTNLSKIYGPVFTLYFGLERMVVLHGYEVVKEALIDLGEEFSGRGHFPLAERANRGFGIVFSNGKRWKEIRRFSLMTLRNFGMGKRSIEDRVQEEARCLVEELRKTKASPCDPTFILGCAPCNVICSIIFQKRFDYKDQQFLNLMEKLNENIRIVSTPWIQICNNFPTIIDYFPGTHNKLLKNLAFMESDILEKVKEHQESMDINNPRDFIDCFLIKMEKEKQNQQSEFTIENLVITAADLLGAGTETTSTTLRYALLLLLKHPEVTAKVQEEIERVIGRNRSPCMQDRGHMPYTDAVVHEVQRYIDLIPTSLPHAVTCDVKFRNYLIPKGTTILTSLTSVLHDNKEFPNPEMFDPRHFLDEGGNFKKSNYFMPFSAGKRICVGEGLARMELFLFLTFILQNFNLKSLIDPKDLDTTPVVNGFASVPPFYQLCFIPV

Compound: N[C@H]1C=C(C(=O)O)SC1 [(S)-4-Amino-4,5-dihydro-2-thiophenecarboxylic acid]
- inactivation of GABA-AT (in words, prior art) (GABA-AT): known inactivator of GABA-AT
- inactivation or inhibition of aspartate aminotransferase [1]: inactivator of aspartate aminotransferase

Compound: C=CC(N)CCC(=O)O (stereo not shown) [vigabatrin]
- time spasms suppression stayed effective [2]: 1 days

- CYP1A inhibition (CYP1A): did not inhibit or induce
- CYP2B6 inhibition (CYP2B6): did not inhibit or induce
- CYP2C8 inhibition (CYP2C8): did not inhibit or induce
- CYP2C9 inhibition (CYP2C9): did not inhibit or induce
- CYP2C19 inhibition (CYP2C19): did not inhibit or induce
- CYP2D6 inhibition (CYP2D6): did not inhibit or induce
- CYP3A inhibition (CYP3A): did not inhibit or induce
- metabolized in HLM [3]: less than 20%
Compound: Cl.N[C@@H]1CS[C@H](C(=O)O)C1 [Compound 17, (2S,4S)-4-Aminotetrahydrothiophene-2-carboxylic acid hydrochloride]
- inhibition of the hERG channel (tail current) (hERG channel): did not inhibit

- Ki [4]: 430 µM
Compound: (2S,4S)-4-aminotetrahydrofuran-2-carboxylic acid (40) and (2R,4R)-4-aminotetrahydrofuran-2-carboxylic acid (51) [mixture of enantiomers 40 and 51]
